Tests used:
[1] = test system: ABCA4−/−/RDH8−/− mice; assay: HPLC analysis of 11-cis-retinal in eyes of ABCA4−/−/RDH8−/− mice; type: in vivo, mouse; details: HPLC peak area of 11-cis-retinal, No Treatment 88.2
Source text: (§1) We tested 21 drugs containing primary amino groups to determine if they react with the aldehyde group of all-trans-RAL to reduce its toxic levels in the eye after exposure to light and prevent its condensation into toxic conjugates. […] For these experiments, we used ABCA4^−/−/RDH8^−/− mice as models for Stargardt's disease and AMD. We employed analytical methods for determining the pharmacodynamics and pharmacokinetics of candidate drugs including: HPLC/MS/MS for analysis of retinoids and histological sections and OCT for assessment of retinal pathology. The relative amount of retinoids and their composition strongly correlates with the health status of the retina. […] Methodologies for performing the analysis on ABCA4^−/−/RDH8^−/− mice is described below.
(§2) Abca4^−/− mice also were generated by standard procedures (Ingenious Targeting, Inc., Stony Brook, N.Y.). […] Rdh8^−/−Abca4^−/− mice were established by crossbreeding Abca4^−/− mice with Rdh8^−/− mice. […] PCR products were cloned and sequenced to verify their identities.
All experimental procedures related to extraction, derivatization, and separation of retinoids from dissected mouse eyes were carried out under dim red light. Two whole mouse eyes were homogenized in 1 ml of 50 mM phosphate buffer, pH 7.0, containing 50% ethanol and 10 mM NH2OH. Ice-cold methanol (1 ml) was added to the homogenates 20 min after incubation at room temperature (RT), non-polar retinoids were extracted twice with 4 ml of hexane. The organic phase was collected, dried down in a SpeedVac and re-solubilized in 0.3 ml of hexane. […] Retinoids were detected at 325 nm (retinyl esters and retinols) and 350 nm (retinyl oximes) with a diode array detector. Those of interest were quantified based on the areas under their peaks calculated with the help of HP Chemstation A.03.03 software and compared with areas calculated based on known amounts of synthetic standards plotted as a standard curve.

[2] = test system: Rdh8−/−Abca4−/− mice; assay: SD-OCT grading of retinal degeneration in light-exposed Rdh8−/−Abca4−/− mice; type: in vivo, mouse; details: for Score OCT: Rdh8−/−Abca4−/− mice, SD-OCT 7 days after 10,000 lux illumination for 30 min at 4 weeks of age, score 5 = no degeneration, 1 = severe, No Treatment 1; for effectiveness in treating retinal degeneration in the mice: ABCA4−/−/RDH8−/− mice, effective = OCT score at least about 2.5 and 11-cis-retinal increase at least about 30%
Source text: as §1, §2
Although analytical and histological methods provide exhaustive characterization of retina, they cannot be performed in vivo. To reduce the number of sacrificed animals and time required for analysis, SD-OCT from Bioptigen (Research Triangle Park, N.C.) was employed for in vivo imaging of mouse retinas. Bioptigen OCT systems utilize a narrow single-mode beam from a wide bandwidth light source to probe the structure of retina at a higher resolution (2.0 μm) than normal OCT systems. Mice were anesthetized by intraperitoneal (IP) injection of 20 μl/g bw of 6 mg/ml ketamine and 0.44 mg/ml xylazine diluted with 10 mM sodium phosphate, pH 7.2, containing 100 mM NaCl. Pupils were dilated with 1% tropicamide. In vivo SD-OCT images were obtained from both eyes. Four pictures acquired in a B-scan mode were used to construct the final averaged images (FIG. 8).
In vivo retinal structures of Rdh8^−/−Abca4^−/− mice are imaged by SD-OCT 7 days after 10,000 lux illumination for 30 min at 4 weeks of age.

[3] = Formation of Schiff base between retinal and selected amines (UV/Vis spectra); type: physicochemical; details: 90% ethanol in water, 0.1 M phosphate buffer pH 7.0, 2 molar excess of amine, 1 h room temperature
Description: Formation of conjugates (Schiff-base) between retinal and primary amine compounds containing amino group (putative drugs) is the key mechanism to control all-trans-RAL levels in the retina and prevent retina degeneration. Stability of these conjugates is an important factor that can determine biological activity of the drugs. To standardize conditions of Schiff-base formation all reactions were performed in 90% ethanol in water buffered with 0.1 M phosphate buffer, pH 7.0. Stock solution of retinal was made up freshly in ethanol. Its final concentration was determined spectrophotometrically at 380 nm (ε=42,880). All procedures were carried out in the dark. Schiff base formation was initiated by addition of retinal stock solution to a 2 molar excess of tested amine dissolved in the reaction buffer. The reaction mixture was incubated for 1 h in room temperature.
Steady-state rate of Schiff-base formation was obtained from absorbance changes at 380 and 440 nm (510 nm for aromatic amines) corresponding to free retinal and protonated Schiff base, respectively. To investigate stability of the given retinal conjugates a mixture of HPLC purified Schiff base of selected compound and phosphatidylocholine was dried down in SpeedVac. Then, Schiff-base and lipids were overlaid with 0.1 M phosphate buffer and sonicated immediately to form liposomes. The samples were extracted with hexane following 30 min incubated in room temperature. The breakdown of Schiff-base was monitored by HPLC detection of free retinal extracted from the reaction mixture.
FIGS. 3-5 illustrate UV/Vis spectra for the FDA approved drugs. FDA approved drugs that were active readily formed a Schiff base with all-trans-RAL as evidenced by a substantial differential between spectra of unprotonated and protonated Schiff base.

Structure (SMILES)	11cRAL (area) [1]	Score OCT [2]	formation of stable Schiff-base with all-trans-RAL [3]	effectiveness in treating retinal degeneration in the mice [2]
CC(C)(S)[C@@H](N)C(=O)O [Cuprimine]	118.5	1.7	did not readily form stable Schiff-bases	–
NCc1ccc(S(N)(=O)=O)cc1 [Sulfamylon]	166.1	–	–	effective in treating retinal degeneration
N[C@@H](CC(=O)N1CCn2c(nnc2C(F)(F)F)C1)Cc1cc(F)c(F)cc1F [Januvia]	126.8	–	–	effective in treating retinal degeneration
Nc1ccc(S(=O)(=O)c2ccc(N)cc2)cc1 [Dapsone]	156.5	–	–	effective in treating retinal degeneration
CC(C)C[C@H](CN)CC(=O)O [Lyrica, (S)-3-(aminomethyl)-5-methylhexanoic acid]	166.5	–	readily formed stable Schiff-bases	effective in treating retinal degeneration
CC(N)C12CC3CC(CC(C3)C1)C2 (stereo not drawn) [Flumadine]	135.3	–	–	effective in treating retinal degeneration
Nc1ccc(C(=O)NCC(=O)[O-])cc1.[Na+] [Aminohippurate Sodium]	109.4	1	–	–
NCCCC[C@H](N[C@@H](CCc1ccccc1)C(=O)O)C(=O)N1CCC[C@H]1C(=O)O [Prinivil]	132.7	2.0	–	–
CC12CC3CC(C)(C1)CC(N)(C3)C2 [Nameda]	97.6	1.7	–	–
Nc1ccc(C(=O)O)c(O)c1 [Paser]	151.9	–	readily formed stable Schiff-bases	effective in treating retinal degeneration
Nc1ccc(C(=O)[O-])cc1.[K+] [Potaba]	90.6	2.3	did not readily form stable Schiff-bases	–
CCOC(=O)C1=C[C@@H](OC(CC)CC)[C@H](NC(C)=O)[C@@H](N)C1 [Tamiflu]	87.3	1.3	–	–
COCCCC/C(=N\OCCN)c1ccc(C(F)(F)F)cc1 [Luvox]	175.5	–	–	effective in treating retinal degeneration
N[C@@H]1CON=C1O [Seromycin]	159.9	–	readily formed stable Schiff-bases	effective in treating retinal degeneration
NS(=O)(=O)c1cc2c(cc1Cl)N=C[N-]S2(=O)=O.[Na+] [Sodium Diuril]	139.7	–	–	effective in treating retinal degeneration
Nc1ccc(O)c(C(=O)O)c1 [Asacol]	140.2	–	–	effective in treating retinal degeneration
CC(C)C[C@@H](CN)CC(=O)O [(R)-3-(aminomethyl)-5-methylhexanoic acid]	164.8	–	–	effective in treating retinal degeneration

— US10208049B2, “Compounds and methods of treating ocular disorders” (Case Western Reserve University, priority 2009, dated 2019)
